Measurements reported in patent publication US20240190885A1, “KRAS PROTEIN DEGRADERS, PHARMACEUTICAL COMPOSITIONS THEREOF, AND THEIR THERAPEUTIC APPLICATIONS” (BioTheryX, Inc., priority 2021, published 2024).
Blank lines part the entries; values can stand above or below the compound they belong to.

Columns and labels:
Type in all cases: cell-based
Lovo (G13D) cells = assay: Cell viability assay (CELLTITER-GLO), Lovo cells; details: Homo sapiens, 72 h, 3 days, CELLTITER-GLO luminescence, read-out: Inhibition of Cancerous Cells IC50 Lovo (G13D)
Protocol: (§1) H358 and SW48 cells were cultured in RPMI 1640 media supplemented with 10% fetal bovine serum, streptomycin, and penicillin. Lovo and SW480 cells were cultured in DMEM media supplemented with 10% fetal bovine serum, streptomycin, and penicillin. The cell lines were plated in their respective medium supplemented with 2.5% fetal bovine serum, streptomycin, and penicillin. All cell lines were plated in white walled 96-well plates at 2,000 cells/well or 384-well plates at 500 cells/well, except Lovo, which were plated at 4,000 or 1,000 cells/well, respectively. The cells were incubated in DMSO (control) or a compound for 3 days at 37° C. under 5% CO2. A CELLTITER-GLO® reagent (100 μL) was then added to each well. After a 10 min incubation with shaking, luminescence was measured using an ENVISION® multimode plate reader.

H358 (G12C) cells = assay: Cell viability assay (CELLTITER-GLO), H358 cells; details: Homo sapiens, NCI-H358, 72 h, 3 days, CELLTITER-GLO luminescence, read-out: Inhibition of Cancerous Cells IC50 H358 (G12C)
Protocol: as §1

SW48 (wt) cells = assay: Cell viability assay (CELLTITER-GLO), SW48 cells; details: Homo sapiens, 72 h, 3 days, CELLTITER-GLO luminescence, read-out: Inhibition of Cancerous Cells IC50 SW48 (wt)
Protocol: as §1

KRAS = target: T1, KRAS (Homo sapiens, UniProt P01116); assay: Protein degradation assay (western blot) in HEK293 cells; details: 6 h; for percent KRAS protein degradation at 3 µM: compound 3 μM; for KRAS Protein Degradation (%) 5 μM: compound 5 μM
T1 construct: Whole cell extracts were prepared using an immunoprecipitation (IP) lysis buffer; endogenous in cells; host or cells: HEK293
T1 sequence (P01116 1-188 isoform P01116-2): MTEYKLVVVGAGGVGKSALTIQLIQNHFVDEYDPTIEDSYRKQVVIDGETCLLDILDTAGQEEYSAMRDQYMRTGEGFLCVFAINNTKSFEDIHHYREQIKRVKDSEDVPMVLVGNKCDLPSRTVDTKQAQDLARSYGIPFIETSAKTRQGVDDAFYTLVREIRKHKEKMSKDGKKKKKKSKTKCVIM
Protocol: HEK293 cells were grown in RPMI 1640 media supplemented with 10% fetal bovine serum, streptomycin, and penicillin. The cells were plated in 24-well plates in the growth media. The cells were then treated with a compound at indicated concentrations for 6 h. Whole cell extracts were prepared using an immunoprecipitation (IP) lysis buffer. Briefly, the cells were washed once in PBS, and the cell pellets were resuspended in the IP lysis buffer and incubated for 15 min on ice. Cell debris was removed by centrifugation and the cleared whole cell lysates were transferred to new tubes for further analysis.
For a western blot analysis, the whole cell protein extracts were separated on 4-12% SDS-polyacrylamide gels, transferred to nitrocellulose, and probed with primary antibodies. The nitrocellulose is subsequently washed and probed with IRDYE® secondary antibodies. The signals were detected using an ODYSSEY® Imaging System. The antibodies used in the assay included anti-KRAS; […] mouse monoclonal antibody; IRDYE® 680RD goat anti-rabbit antibody; and IRDYE® 800CW goat anti-mouse antibody.

SW480 (G12V) cells = assay: Cell viability assay (CELLTITER-GLO), SW480 cells; details: Homo sapiens, 72 h, 3 days, CELLTITER-GLO luminescence, read-out: Inhibition of Cancerous Cells IC50 SW480 (G12V)
Protocol: as §1

SMILES: Cc1nn2c(N3CCN(CCO)CC3)cc(-c3cccc(CCOCCOC(=O)CC45CC6CC(CC(C6)C4)C5)c3)nc2c1-c1ccccc1 [Compound A3, 2-(3-(7-(4-(2-hydroxyethyl)piperazin-1-yl)-2-methyl-3-phenylpyrazolo[1,5-a]pyrimidin-5-yl)phenethoxy)ethyl 2-(adamantan-1-yl)acetate]
IC50 (Lovo (G13D) cells): 980 nM | IC50 (H358 (G12C) cells): 3300 nM | IC50 (SW48 (wt) cells): 1400 nM | percent KRAS protein degradation at 3 µM (KRAS): 0% | KRAS Protein Degradation (%) 5 μM (KRAS): 0% | IC50 (SW480 (G12V) cells): 1200 nM

SMILES: Cc1nn2c(N3CCN(CCO)CC3)cc(-c3cccc(C#CCCCCCCCOC(=O)CC45CC6CC(CC(C6)C4)C5)c3)nc2c1-c1ccccc1 [Compound A5, 9-(3-(7-(4-(2-hydroxyethyl)piperazin-1-yl)-2-methyl-3-phenylpyrazolo[1,5-a]pyrimidin-5-yl)phenyl)non-8-yn-1-yl 2-(adamantan-1-yl)acetate]
IC50 (Lovo (G13D) cells): > 10000 nM | IC50 (H358 (G12C) cells): > 10000 nM | IC50 (SW48 (wt) cells): > 10000 nM | percent KRAS protein degradation at 3 µM (KRAS): 4% | KRAS Protein Degradation (%) 5 μM (KRAS): 18% | IC50 (SW480 (G12V) cells): > 10000 nM

SMILES: Cc1nn2c(N3CCN(CCO)CC3)cc(-c3cccc(CCCCCCCCCNC(=O)CC45CC6CC(CC(C6)C4)C5)c3)nc2c1-c1ccccc1 [Compound A1, 2-(adamantan-1-yl)-N-(9-(3-(7-(4-(2-hydroxyethyl)piperazin-1-yl)-2-methyl-3-phenylpyrazolo[1,5-a]pyrimidin-5-yl)phenyl)nonyl)acetamide]
IC50 (Lovo (G13D) cells): 4500 nM | IC50 (H358 (G12C) cells): 7800 nM | IC50 (SW48 (wt) cells): 5000 nM | percent KRAS protein degradation at 3 µM (KRAS): 7% | KRAS Protein Degradation (%) 5 μM (KRAS): 27% | IC50 (SW480 (G12V) cells): > 10000 nM

SMILES: Cc1nn2c(N3CCN(CCO)CC3)cc(-c3ccccc3)nc2c1-c1ccccc1 [drawing 105, reference compound]
IC50 (Lovo (G13D) cells): 2600 nM | IC50 (H358 (G12C) cells): 3300 nM | IC50 (SW48 (wt) cells): 2700 nM | IC50 (SW480 (G12V) cells): 1400 nM

SMILES: Cc1nn2c(N3CCN(CCO)CC3)cc(-c3cccc(CCNC(=O)CC45CC6CC(CC(C6)C4)C5)c3)nc2c1-c1ccccc1 [Compound A2, 2-(adamantan-1-yl)-N-(3-(7-(4-(2-hydroxyethyl)piperazin-1-yl)-2-methyl-3-phenylpyrazolo[1,5-a]pyrimidin-5-yl)phenethyl)acetamide]
IC50 (Lovo (G13D) cells): 1200 nM | IC50 (H358 (G12C) cells): 1700 nM | IC50 (SW48 (wt) cells): 1400 nM | percent KRAS protein degradation at 3 µM (KRAS): 20% | KRAS Protein Degradation (%) 5 μM (KRAS): 54% | IC50 (SW480 (G12V) cells): 840 nM

SMILES: Cc1nn2c(N3CCN(CCO)CC3)cc(-c3ccccc3)nc2c1-c1cccc(CCCCCCCCCNC(=O)CC23CC4CC(CC(C4)C2)C3)c1 [Compound C2, 2-(Adamantan-1-yl)-N-(9-(3-(7-(4-(2-hydroxyethyl)piperazin-1-yl)-2-methyl-5-phenylpyrazolo[1,5-a]pyrimidin-3-yl)phenyl)nonyl)acetamide]
IC50 (Lovo (G13D) cells): 3400 nM | IC50 (H358 (G12C) cells): > 10000 nM | IC50 (SW48 (wt) cells): 4500 nM | percent KRAS protein degradation at 3 µM (KRAS): 0% | KRAS Protein Degradation (%) 5 μM (KRAS): 0% | IC50 (SW480 (G12V) cells): 2200 nM

Now from value to compound:

IC50 (Lovo (G13D) cells): > 10000 nM | IC50 (H358 (G12C) cells): > 10000 nM | IC50 (SW48 (wt) cells): > 10000 nM | percent KRAS protein degradation at 3 µM (KRAS): 10% | KRAS Protein Degradation (%) 5 μM (KRAS): 28% | IC50 (SW480 (G12V) cells): > 10000 nM
SMILES: Cc1nn2c(N3CCN(CCO)CC3)cc(-c3cccc(CCCCCCCCCOC(=O)CC45CC6CC(CC(C6)C4)C5)c3)nc2c1-c1ccccc1 [Compound A6, 9-(3-(7-(4-(2-hydroxyethyl)piperazin-1-yl)-2-methyl-3-phenylpyrazolo[1,5-a]pyrimidin-5-yl)phenyl)nonyl 2-(adamantan-1-yl)acetate]

percent KRAS protein degradation at 3 µM (KRAS): 0%
SMILES: Cc1nn2c(N3CCN(CCO)CC3)cc(-c3ccccc3)nc2c1-c1ccccc1 [drawing 106, reference compound]

IC50 (Lovo (G13D) cells): 880 nM | IC50 (H358 (G12C) cells): 1600 nM | IC50 (SW48 (wt) cells): 1300 nM | percent KRAS protein degradation at 3 µM (KRAS): 20% | KRAS Protein Degradation (%) 5 μM (KRAS): 51% | IC50 (SW480 (G12V) cells): 1200 nM
SMILES: Cc1nn2c(N3CCN(CCO)CC3)cc(-c3cccc(CCOCCNC(=O)CC45CC6CC(CC(C6)C4)C5)c3)nc2c1-c1ccccc1 [Compound A4, 2-(adamantan-1-yl)-N-(2-(3-(7-(4-(2-hydroxyethyl)piperazin-1-yl)-2-methyl-3-phenylpyrazolo[1,5-a]pyrimidin-5-yl)phenethoxy)ethyl)acetamide]
